Assay results published in publication PMC9234962, “Optimization of Peptide Linker-Based Fluorescent Ligands for the Histamine H1 Receptor” (Journal of Medicinal Chemistry, 2022).
Read-outs that look alike come from different tables or passages of the source. Square brackets hold non-standard residues; d marks the D form. Peptide text beside a SMILES is read from it. * marks the point of attachment. X1 = O=C(COc1ccc(/C=C/C2=[N+]3C(=Cc4ccc(-c5cccs5)n4[B-]3(F)F)C=C2)cc1)*; Propanoyl(3-Pip(4-O-2-BnPh)) = O=C(CCN1CCC(Oc2ccccc2Cc2ccccc2)CC1)*; X3 = Cc1cc(C)n2c1C=C1C=CC(/C=C/c3ccc(OCC(=O)*)cc3)=[N+]1[B-]2(F)F; BODIPY(FL) = CC1=CC(C)=[N+]2C1=Cc1ccc(CCC(=O)*)n1[B-]2(F)F; X2 = O=C(CCC1=[N+]2C(=Cc3ccc(-c4cccs4)n3[B-]2(F)F)C=C1)*; βAla = NCCC(=O)O

Experiments:
H1R = conditions: cited from earlier work
human H1R = target: T1, human H1R (Homo sapiens, UniProt P35367); assay: Ca2+ mobilization assay on human H1R-expressing CHO cells; format: cell-based; conditions: Gaddum equation, shift in histamine EC25 with 1 μM antagonist
T1 construct: expressed in transfected cells; host or cells: CHO cells
Procedure: CHO cells expressing H1R were grown to confluence in black-walled, clear-bottom 96-well plates. On the day of the experiment, media were replaced with 100 μL of HBSS containing […], 2.3 μM Fluo-4AM (Invitrogen), 0.023% Pluronic F-127, 0.5 mM Brilliant Black BN, and 1 μM required fluorescent ligand and the plates incubated for 1 h at 37 °C in the dark. The plates were then placed in the multi-well fluorometric imaging plate reader FlexStation3 (Molecular Devices, Sunnyvale, CA) and HBSS only or HBSS containing the required concentration of histamine was added after 15 s. Fluo-4 fluorescence was measured at 520 nm (excitation at 485 nm) every 1.52 s for 200 s. For each well, the peak maximum–minimum–maximum change in fluorescence value was taken and plotted against concentration of histamine to give a dose–response curve.
Estimated affinity values (pKB) were calculated from the shift in agonist concentration–response curves in the presence of the fluorescent antagonists using the Gaddum equation (7): [drawing 10] 7 where DR (dose ratio) is the ratio of the agonist concentration required to stimulate an identical response in the presence and absence of antagonist, [B]. DR was determined from the EC25 value as there was a decrease in observed maximal efficacy of histamine in the presence of all 10 fluorescent antagonists.

Nluc-H3R = target: T2, Nluc-H3R (Homo sapiens, UniProt Q9Y5N1); assay: NanoBRET saturation binding assay on Nluc-H3R HEK293T cell homogenates
T2 construct: expressed in transfected cells; host or cells: HEK293T, transient transfection; sonicated cell homogenates
Procedure: (§1) HEK293T cells were transiently transfected with 2.5 μg of cDNA encoding Nluc-H3R or Nluc-H4R and 2.5 μg of empty pcDEF3 vector using the polyethylenimine method as described previously in Mocking et al.[23] Two days after transfection, cells were collected in phosphate-buffered saline (PBS) and centrifuged at 1900g for 10 min and the cell pellet was stored at −20°C until the day of experiment. The pellet was resuspended in HBSS buffer, and cells were disrupted using a Branson sonifier 250 (Boom bv., Meppel, the Netherlands) prior to use in a NanoBRET binding assay.
For all NanoBRET binding experiments, 10 μM NanoGlo substrate (Promega) was added to each well after the incubation period and fluorescence and luminescence emissions were measured after 5 min.
(§2) Total and non-specific saturation binding curves from NanoBRET saturation binding assay were fitted simultaneously using eq 1: [drawing 4] 1 where Bmax is the maximal specific binding, [B] is the concentration of fluorescent ligand in nM, KD is the equilibrium dissociation constant in nM, M is the slope of the non-specific component, and C is the intercept with the Y axis.

Nluc-H4R = target: T3, Nluc-H4R (Homo sapiens, UniProt Q9H3N8); assay: NanoBRET saturation binding assay on Nluc-H4R HEK293T cell homogenates
T3 construct: expressed in transfected cells; host or cells: HEK293T, transient transfection; sonicated cell homogenates
Procedure: as §1
For cell membrane NanoBRET saturation binding experiments, cell homogenates expressing the Nluc-H3R or Nluc-H4R were incubated with the required concentrations of fluorescent ligand in the absence and presence of 10 μM clobenpropit in HBSS for 2 h at 25 °C. For all NanoBRET binding experiments, 10 μM NanoGlo substrate (Promega) was added to each well after the incubation period and fluorescence and luminescence emissions were measured after 5 min.
as §2

Nluc-H1R [1] = target: T4, Nluc-H1R (Homo sapiens, UniProt P35367); assay: NanoBRET saturation binding assay on Nluc-H1R expressing HEK293T cells; design: expressed in transfected cells; conditions: saturation binding curves, whole HEK293T cells; for pKD: non-specific with 10 μM mepyramine, mean ± SEM
Source text: as §2

Nluc-H1R [2] = target: T4, Nluc-H1R; assay: NanoBRET association kinetics assay on Nluc-H1R HEK293T cells; format: binding; design: expressed in transfected cells
Procedure: For whole cell NanoBRET association kinetic experiments, 10 μM furimazine was added to each well and incubated at room temperature in the dark for 15 min to allow for stabilization of the luminescence signal. The required concentration of fluorescent ligand in the presence or absence of 10 μM of doxepin was added simultaneously, and the plates were read immediately with each well being read once per min for 90 min.
For the NanoBRET association kinetic experiments, the BRET ratio was determined for each concentration of fluorescent ligand at each time point in the presence or absence of 10 μM of doxepin. Specific binding was calculated by subtracting non-specific binding from total binding.

[3] = mean ± SEM, four experiments, read-out: pKB (converted)
[4] = cell homogenates, highest concentration 1 μM for 31a, 31k
[5] = cell homogenates, highest concentration 1 μM for 31a, 31k, mean ± SEM, three experiments

T3 sequence (Q9H3N8 whole entry): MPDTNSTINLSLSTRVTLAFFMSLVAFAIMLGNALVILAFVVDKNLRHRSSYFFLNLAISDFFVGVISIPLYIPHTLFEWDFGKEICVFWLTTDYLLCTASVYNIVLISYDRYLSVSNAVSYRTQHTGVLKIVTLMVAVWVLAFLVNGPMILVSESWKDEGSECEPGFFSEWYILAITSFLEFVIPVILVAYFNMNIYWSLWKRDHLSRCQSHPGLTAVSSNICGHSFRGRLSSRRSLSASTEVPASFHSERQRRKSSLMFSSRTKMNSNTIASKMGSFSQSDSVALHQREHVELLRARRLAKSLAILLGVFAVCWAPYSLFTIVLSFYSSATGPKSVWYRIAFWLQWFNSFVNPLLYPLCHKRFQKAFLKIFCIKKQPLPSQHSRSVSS
T2 sequence (Q9Y5N1 whole entry): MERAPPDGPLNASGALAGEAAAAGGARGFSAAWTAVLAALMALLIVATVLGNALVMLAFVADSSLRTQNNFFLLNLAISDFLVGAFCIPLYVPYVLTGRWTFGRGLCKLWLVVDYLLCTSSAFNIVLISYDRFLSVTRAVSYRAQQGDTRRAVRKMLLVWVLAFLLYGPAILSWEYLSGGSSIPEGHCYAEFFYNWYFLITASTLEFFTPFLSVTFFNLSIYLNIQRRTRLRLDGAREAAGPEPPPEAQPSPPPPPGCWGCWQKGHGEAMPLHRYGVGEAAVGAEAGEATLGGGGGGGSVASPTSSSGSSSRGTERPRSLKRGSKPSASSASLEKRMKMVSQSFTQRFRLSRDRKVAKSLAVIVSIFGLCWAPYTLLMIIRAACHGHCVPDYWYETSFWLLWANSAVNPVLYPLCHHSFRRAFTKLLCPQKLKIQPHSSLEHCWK
T4 sequence (P35367 whole entry): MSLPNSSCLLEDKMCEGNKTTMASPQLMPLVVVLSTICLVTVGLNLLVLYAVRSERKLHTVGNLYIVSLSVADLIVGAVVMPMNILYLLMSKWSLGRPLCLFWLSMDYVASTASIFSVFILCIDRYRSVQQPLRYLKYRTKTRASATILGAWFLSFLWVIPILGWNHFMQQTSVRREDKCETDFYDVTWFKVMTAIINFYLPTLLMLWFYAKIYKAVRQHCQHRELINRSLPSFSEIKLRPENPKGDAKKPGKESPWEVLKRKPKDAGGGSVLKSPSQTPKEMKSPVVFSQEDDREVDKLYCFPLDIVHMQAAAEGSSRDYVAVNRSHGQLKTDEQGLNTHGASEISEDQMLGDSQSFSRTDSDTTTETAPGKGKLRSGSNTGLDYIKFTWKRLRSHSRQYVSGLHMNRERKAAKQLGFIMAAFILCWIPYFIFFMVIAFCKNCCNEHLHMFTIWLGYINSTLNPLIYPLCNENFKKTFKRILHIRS
T1 sequence (P35367 whole entry): as above

Row | Structure (SMILES) | Kb (human H1R; read-out: KB (converted)) [nM] | Kd (Nluc-H1R [1]) [nM] | pKD (Nluc-H1R [1]) | also measured
1 | C[C@@H](NC(=O)CCN1CCC(Oc2ccccc2Cc2ccccc2)CC1)C(=O)N[C@H](C)C(=O)N[C@H](C)C(=O)NCCNC(=O)CCCCCNC(=O)COc1ccc(/C=C/C2=[N+]3C(=Cc4ccc(-c5cccs5)n4[B-]3(F)F)C=C2)cc1 [Compound 1] |  |  |  | Radioligand binding assay (hH1R) pKi (H1R): 8.4 ± 0.1
2 | C[C@H](NC(=O)[C@H](C)NC(=O)[C@H](Cc1ccccc1)NC(=O)CCN1CCC(Oc2ccccc2Cc2ccccc2)CC1)C(=O)NCCC(=O)N[C@@H](CCCCNC(=O)COc1ccc(/C=C/C2=[N+]3C(=Cc4ccc(-c5cccs5)n4[B-]3(F)F)C=C2)cc1)C(N)=O [Compound 31k, (S)-2-((6S,9S,12S)-12-Benzyl-16-(4-(2-benzylphenoxy)piperidin-1-yl)-6,9-dimethyl-5,8,11,14-tetraoxo-4,7,10,13-tetraazahexadecanamido)-6-(2-(4-((E)-2-(5,5-difluoro-7-(thiophen-2-yl)-5H-5λ^4,6λ^4-dipyrr-olo[1,2-c:2’,1’-f][1,3,2]diazaborinin-3-yl)vinyl)phenoxy)acetamido)hexanamide] ({Propanoyl(3-Pip(4-O-2-BnPh))}-FAA[βAla]K(X1)-NH2) | 3 | 12 | 7.92 ± 0.08 | Kb (human H1R; [3]): 2.57 nM; Kd (Nluc-H3R; [4]): < 1000 nM; Nluc-H3R pKD (Nluc-H3R; [5]): < 6; binding at H3R in saturation assay (in words) (Nluc-H3R; concentrations of up to 1 μM): little to no binding; selectivity for H1R over H3R and H4R (Nluc-H3R; from NanoBRET saturation binding at H1R, H3R, H4R): approximately 100 fold; Kd (Nluc-H4R; [4]): < 1000 nM; Nluc-H4R pKD (Nluc-H4R; [5]): < 6; binding at H4R in saturation assay (in words) (Nluc-H4R; concentrations of up to 1 μM): little to no binding; Kd (Nluc-H1R [2]; kinetic pKD, mean ± SEM, read-out: pKD determined from kon and koff (converted)): 22.9 nM; residence time (Nluc-H1R [2]; read-out: mean residence times (MRT)): > 60 min; kon (Nluc-H1R [2]; real-time NanoBRET, room temperature, 90 min, mean ± SEM): 11400 M⁻¹ s⁻¹; MRT (mean residence time, 1/koff) (Nluc-H1R [2]; real-time NanoBRET, mean ± SEM): 78.8 ± 14.4 min; koff (Nluc-H1R [2]; real-time NanoBRET, mean ± SEM): 0.000233 s⁻¹
3 | Cc1cc(C)n2c1C=C1C=CC(CCC(=O)NCCCC[C@H](NC(=O)CCNC(=O)[C@H](CC(N)=O)NC(=O)[C@H](CO)NC(=O)[C@@H](NC(=O)CCN3CCC(Oc4ccccc4Cc4ccccc4)CC3)C(C)C)C(N)=O)=[N+]1[B-]2(F)F [Compound 38d, (S)-N^1-(3-(((S)-1-Amino-6-(3-(5,5-difluoro-7,9-dimethyl-5H-4λ^4,5λ^4-dipyrrolo[1,2-c:2’,1’-f][1,3,2]diazaborinin-3-yl)propanamido)-1-oxohexan-2-yl)amino)-3-oxopropyl)-2-((S)-2-((S)-2-(3-(4-(2-benzylphenoxy)piperidin-1-yl)propanamido)-3-methylbutanamido)-3-hydroxypropanamido)succinamide] ({Propanoyl(3-Pip(4-O-2-BnPh))}-VSN[βAla]K(BODIPY(FL))-NH2) | 112 | 1290 | 5.89 ± 0.10 | 
4 | CC(C)[C@H](NC(=O)CCN1CCC(Oc2ccccc2Cc2ccccc2)CC1)C(=O)N[C@@H](CO)C(=O)N[C@@H](CC(N)=O)C(=O)NCCC(=O)N[C@@H](CCCCNC(=O)CCCCC[N+]1=C(/C=C/C=C/C=C2/N(C)c3ccc(S(=O)(=O)[O-])cc3C2(C)C)C(C)(C)c2cc(S(=O)(=O)O)ccc21)C(N)=O [Compound 38f, 1-((5S,8S,11S,18S)-11-(2-Amino-2-oxoethyl)-1-(4-(2-benzylphenoxy)piperidin-1-yl)-18-carbamoyl-8-(hydroxymethyl)-5-isopropyl-3,6,9,12,16,24-hexaoxo-4,7,10,13,17,23-hexaazanonacosan-29-yl)-3,3-dimethyl-2-((1E,3E)-5-((E)-1,3,3-trimethyl-5-sulfonatoindolin-2-ylidene)penta-1,3-dien-1-yl)-3H-indol-1-ium-5-sulfonate] | 4680 | 2190 | 5.66 ± 0.02 | 
5 | Cc1cc(C)n2c1C=C1C=CC(/C=C/c3ccc(OCC(=O)NCCCC[C@H](NC(=O)CCNC(=O)[C@H](C)NC(=O)[C@H](C)NC(=O)[C@H](Cc4ccccc4)NC(=O)CCN4CCC(Oc5ccccc5Cc5ccccc5)CC4)C(N)=O)cc3)=[N+]1[B-]2(F)F [Compound 39b, (S)-2-((6S,9S,12S)-12-Benzyl-16-(4-(2-benzylphenoxy)piperidin-1-yl)-6,9-dimethyl-5,8,11,14-tetraoxo-4,7,10,13-tetraazahexadecanamido)-6-(2-(4-((E)-2-(5,5-difluoro-7,9-dimethyl-5H-5λ^4,6λ^4-dipyrrolo[1,2-c:2’,1’-f][1,3,2]diazaborinin-3-yl)vinyl)phenoxy)acetamido)hexanamide] ({Propanoyl(3-Pip(4-O-2-BnPh))}-FAA[βAla]K(X3)-NH2) | 102 | 44 | 7.36 ± 0.03 | 
6 | C[C@H](NC(=O)[C@H](C)NC(=O)[C@H](Cc1ccccc1)NC(=O)CCN1CCC(Oc2ccccc2Cc2ccccc2)CC1)C(=O)NCCC(=O)N[C@@H](CCCCNC(=O)CCC1=[N+]2C(=Cc3ccc(-c4cccs4)n3[B-]2(F)F)C=C1)C(N)=O [Compound 39c, (S)-2-((6S,9S,12S)-12-Benzyl-16-(4-(2-benzylphenoxy)piperidin-1-yl)-6,9-dimethyl-5,8,11,14-tetraoxo-4,7,10,13-tetraazahexadecanamido)-6-(3-(5,5-difluoro-7-(thiophen-2-yl)-5H-5λ^4,6λ^4-dipyrrolo[1,2-c:2’,1’-f][1,3,2]diazaborinin-3-yl)propanamido)hexanamide] ({Propanoyl(3-Pip(4-O-2-BnPh))}-FAA[βAla]K(X2)-NH2) | 363 | 724 | 6.14 ± 0.06 | 
7 | Cc1cc(C)n2c1C=C1C=CC(CCC(=O)NCCCC[C@H](NC(=O)CCNC(=O)[C@H](C)NC(=O)[C@H](C)NC(=O)[C@H](Cc3ccccc3)NC(=O)CCN3CCC(Oc4ccccc4Cc4ccccc4)CC3)C(N)=O)=[N+]1[B-]2(F)F [Compound 39d, (S)-2-((6S,9S,12S)-12-Benzyl-16-(4-(2-benzylphenoxy)piperidin-1-yl)-6,9-dimethyl-5,8,11,14-tetraoxo-4,7,10,13-tetraazahexadecanamido)-6-(3-(5,5-difluoro-7,9-dimethyl-5H-4λ^4,5λ^4-dipyrrolo[1,2-c:2’,1’-f][1,3,2]diazaborinin-3-yl)propan-amido)hexanamide] ({Propanoyl(3-Pip(4-O-2-BnPh))}-FAA[βAla]K(BODIPY(FL))-NH2) |  | 1440 | 5.84 ± 0.13 | Kb (human H1R; [3]): 34.7 nM
8 | C[C@H](NC(=O)[C@H](C)NC(=O)[C@H](Cc1ccccc1)NC(=O)CCN1CCC(Oc2ccccc2Cc2ccccc2)CC1)C(=O)NCCC(=O)N[C@@H](CCCCNC(=O)CCCCC[N+]1=C(/C=C/C=C/C=C2/N(C)c3ccc(S(=O)(=O)[O-])cc3C2(C)C)C(C)(C)c2cc(S(=O)(=O)O)ccc21)C(N)=O [Compound 39f, 1-((5S,8S,11S,18S)-5-Benzyl-1-(4-(2-benzylphenoxy)piperidin-1-yl)-18-carbamoyl-8,11-dimethyl-3,6,9,12,16,24-hexaoxo-4,7,10,13,17,23-hexaazanonacosan-29-yl)-3,3-dimethyl-2-((1E,3E)-5-((E)-1,3,3-trimethyl-5-sulfonatoindolin-2-ylidene)penta-1,3-dien-1-yl)-3H-indol-1-ium-5-sulfonate] | 813 | 2190 | 5.66 ± 0.06 | 
9 | c1ccc(Cc2ccccc2OC2CCNCC2)cc1 [VUF13816, 4-(2-Benzylphenoxy)piperidine] |  |  |  | radioligand binding assay pKi (H1R; H1R): 8.20
